Experimental data published in patent US20130243707A1, “TOPICAL COMPOSITIONS” (priority 2006, published 2013).
Values belong to the molecule of their own block, whether it stands above or below them.

How the values were obtained:
[1] = Super-solvent water effect (maximum water before NSAID precipitates); assay type: physicochemical
Description: Methods. […] These amounts are chosen based upon the solubility of one gram of NSAID and the amount of the single solvent alcohol for saturation. Next, water was added in step-wise manner to determine the maximum amount that can be added before any visible amount of the NSAID precipitated (i.e., the volume of water that can be added and yet remain single phasic).

[2] = Solubility of Drugs in single solvent alcohols; assay type: physicochemical
Description: Briefly, the indicated NSAID was weighed and added to a beaker. To each beaker, incremental amounts of the indicated solvent was weighed and added. The beakers were sealed with aluminum foil and placed at room temperature or in a 35 C water bath for 20-30 minutes. They beakers were shaken frequently to mix the contents. After 20-30 minutes the solvent alcohols were examined. If a single phasic solution was not yet achieved, an additional aliquot of the solvent was added and the cycle was repeated until complete solvation had occurred.

[3] = Prodrug (ester) formation upon storage, HPLC; assay type: physicochemical; conditions: for rate of prodrug generation: 2% propylene glycol, linear for at least the first 26 days
Description: Next, the peak was characterized in terms of retention position, UV spectrum and mass spectroscopy response. In addition, isolates of the peak were collected from the chromatograph system employed for liquid chromatography-mass spectroscopy. […] The solution was centrifuged and the supernatant collected for analysis. Chromatography was conducted as follows: • Pumps: Hewlett Packard Model 1100 Binary Systems • Solvent A: Water • Solvent B: Acetonitrile • Gradient: […] Sequential detection was performed by UV absorbance using an HP diode array detector followed by ESI-MS […] using a Sciex O-Star/Pulsar quadrupole-TOF mass spectrometer operating in either the positive and negative ion modes. […] At acidic pH (e.g. […]), prodrug formation was relatively independent of Drug concentration. However, at pH 5, prodrug formation seemed to be first order (i.e. dependant upon the Drug concentration).

[4] = test system: proliferation of lymphocytes in the draining lymph nodes; assay: Local lymph node stimulation assay; assay type: in vivo, CBA/J female mice; conditions: positive control
Description: Compositions of Example 39 are subjected to a local lymph node stimulation assay in CBA/J female mice to determine if present compositions produce a hypersensitivity response as measured by the proliferation of lymphocytes in the draining lymph nodes. Ten groups of 5 mice each are used. Five groups are treated on the dorsal surface of both ears once per day for 3 days the compositions or with a positive control (35% hexylcinnamaldehyde (HCA)). On Day 6, the mice are injected intravenously (IV) with 20 μCi of ^3H-thymidine in sterile saline. Five hours later the mice are euthanized and the draining auricular lymph nodes are removed. […] A three-fold or greater increase in proliferative activity relative to the concurrent vehicle-treated control is considered a positive response. […] Since both of these stimulation indices are greater than 3, the positive controls indeed produced a positive response.

- Super-solvent Effect on water ([1]; Ibuprofen 2 gm, EtOH 1 gm, IPA 1.1 gm): 11.4%
- Super-solvent Effect on water ([1]; Ibuprofen 2 gm, PEG 3 gm, EtOH 1 gm): 45.9%
- Super-solvent Effect on water ([1]; Ibuprofen 2 gm, PEG 3 gm, IPA 1.1 gm): 55%
- Super-solvent Effect on water ([1]; Ibuprofen 2 gm, PG 4 gm, EtOH 1 gm): 65.8%
- Super-solvent Effect on water ([1]; Ibuprofen 2 gm, PG 4 gm, IPA 1.1 gm): 65.3%
- Super-solvent Effect on water ([1]; Ibuprofen 2 gm, PG 4 gm, PEG 3 gm): 56%
- Super-solvent Effect on water ([1]; Ibuprofen 3 gm, PEG 3 gm, EtOH 1 gm, IPA 1.1 gm): 40.4%
- Super-solvent Effect on water ([1]; Ibuprofen 3 gm, PG 4 gm, EtOH 1 gm, IPA 1.1 gm): 63.2%
- Super-solvent Effect on water ([1]; Ibuprofen 3 gm, PG 4 gm, PEG 3 gm, EtOH 1 gm): 57.5%
- Super-solvent Effect on water ([1]; Ibuprofen 3 gm, PG 4 gm, PEG 3 gm, IPA 1.1 gm): 57.2%
- Maximum Drug Concentration in single alcohol: EtOH ([2]; Solubility at 35 C): 50.00
- Maximum Drug Concentration in single alcohol: IPA ([2]; Solubility at 35 C): 47.62
- Maximum Drug Concentration in single alcohol: PEG ([2]; Solubility at 35 C): 25.00
- Maximum Drug Concentration in single alcohol: PG ([2]; Solubility at 35 C): 20.00
- Maximum Drug Concentration in single alcohol: EtOH ([2]; Solubility at Room Temperature): 37.04
- Maximum Drug Concentration in single alcohol: IPA ([2]; Solubility at Room Temperature): 35.71
- Maximum Drug Concentration in single alcohol: PEG ([2]; Solubility at Room Temperature): 22.22
- Maximum Drug Concentration in single alcohol: PG ([2]; Solubility at Room Temperature): 15.38
- rate of prodrug generation ([3]; pH 3.7, composition of 15% ibuprofen, about 60% ethanol, 3% glycerin): approximately 0.05 % per day
- rate of prodrug generation ([3]; pH 5, composition of 15% ibuprofen, about 60% ethanol, 3% glycerin): about 0.025 % per day
SMILES: CC(C)Cc1ccc(C(C)C(=O)O)cc1 (stereo not drawn) [Ibuprofen]
- prodrug generation upon storage (HPLC) ([3]; composition of 15% ibuprofen, about 60% ethanol, 3% glycerin, 2% propylene glycol stored for 3 months at 25 C): A new peak (i.e., the prodrug) distinct from the ibuprofen peak was detected
- effect of Drug concentration and pH on prodrug generation ([3]; compositions of ibuprofen with ethanol as solvent (FIG. 7)): higher pH (e.g. 5.0) substantially decreases the rate of prodrug formation

SMILES: CCCCCC/C(C=O)=C\c1ccccc1 [HCA, hexylcinnamaldehyde]
- stimulation index ([4]; 35% HCA in ISW-AP-01 placebo): 4.6
- stimulation index ([4]; 35% HCA in ethanol): 4.4
